Experimental data as given in BindingDB's records for patent US9611261 (Amgen, 2017).

Target: Cathepsin D (Homo sapiens, UniProt P07339)
Test: In Vitro Enzymatic FRET Assay
Experimental: Recombinant Cat D was expressed in CHO cells. The assay buffer for CathepsinD is 0.05 M citrate pH 3.5, 10% DMSO final, 5 mM CHAPS. […] The assays are effectively started by the addition of different FRET substrates (20 nM for Cat D) and the combination is incubated for one hour. The FRET assay is terminated with by addition of Tris buffer, which raises the pH to neutrality, and the fluorescence is determined. The FRET substrate is a peptide with commercially available fluorophore and quencher, on opposite sides of the BACE cleavage site. […] Proteolytic cleavage of the FRET substrate releases quenching of fluorescence (Cat D excitation 500 nm and emission 580 nm).

Sequence of Cathepsin D (P07339 65-162 limits assumed): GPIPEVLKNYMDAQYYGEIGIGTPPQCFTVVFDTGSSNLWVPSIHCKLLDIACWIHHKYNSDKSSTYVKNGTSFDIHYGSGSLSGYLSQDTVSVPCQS
Sequence of Cathepsin D (P07339 169-412 limits assumed): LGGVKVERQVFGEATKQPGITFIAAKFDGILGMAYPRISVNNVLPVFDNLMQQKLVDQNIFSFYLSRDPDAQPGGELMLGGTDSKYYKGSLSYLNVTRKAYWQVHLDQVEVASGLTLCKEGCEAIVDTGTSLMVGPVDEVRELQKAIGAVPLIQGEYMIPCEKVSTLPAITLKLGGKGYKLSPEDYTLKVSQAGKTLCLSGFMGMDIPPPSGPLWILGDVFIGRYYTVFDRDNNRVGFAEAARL

Row | Structure (SMILES) | IC50
1 | COc1cc(Cl)cnc1C(=O)Nc1ccc(F)c([C@@]2(CF)N=C(N)O[C@@H]3C[C@@H]32)c1 [US9611261, Example 297] | 835 µM
2 | NC1=N[C@@](c2cc(NC(=O)c3cnc(CCC#CC4CC4)cn3)ccc2F)(C(F)F)[C@H]2C[C@H]2O1 [US9611261, Example 411] | 360 µM
